Assay results reported in US6468973B1, “Method in the treatment of schizophrenia” (priority 1998, dated 2002).

Test system: patient with a severe form of schizophrenia
Test: Case study: treatment of a patient with a severe form of schizophrenia with a GnRH-analogue
Format: in vivo, human
Protocol: 3. […] The patient had previously been treated with various dopamine receptor antagonists without any major improvement.
The GnRH-analogue triptorelin is available in a pharmaceutical preparation (Decapeptyl® Depot). In the use of this preparation, an injection is administered containing triptorelin embonate in a dose corresponding to 3.75 mg triptorelin. Injections with this dose are given intramuscularly. They should be repeated every fourth week from the first injection.
A detailed case study of the treatment of a patient with a severe form of schizophrenia is disclosed in the following, as supporting evidence of the effect of the method.
They had previously by other psychiatrists been given traditional treatment, for several years, without any major improvement in the symptoms of schizophrenia.
The situation when the patient came to the clinic was that they had sickness pension since more than twenty years. Their contacts with other persons were highly restraint. […] The clinical diagnosis was that they suffered from a very serious form of schizophrenia. They had no signs of any other mental illness or personality disorder. Thus, it was a clearly defined case of schizophrenia.
Certain symptoms of androgenic hyperactivity such as a male pattern baldness and frequent sexual delusions were also found at the initial examination.
An endocrinological investigation was performed, based upon their symptoms of androgenic hyperactivity. This disclosed a low blood concentration of free testosterone. Since the patient had symptoms of androgenic hyperactivity this laboratory finding could, however, not be a symptom of a low androgenic activity. Instead, the interpretation of this laboratory finding was that it was a sign of a compensatory reduction in the synthesis and release of testosterone occurring as a consequence of an increased androgenic activity in the brain.
During long periods of time the patient had been treated with the drugs which presently are considered to have the best effect against schizophrenia.
In order to overcome the sexual delusions, treatment with the long-acting GnRH-analogue triptorelin (Decapeptyl® Depot) was given every fourth week as deep intramuscular depot injections with a dose corresponding to 1.75 mg triptorelin in each injection. Initially, they were also treated with flutamid in order to prevent a transient increase in androgenic activity.
It is obvious that the dramatic improvement of the patient was caused by the treatment with a GnRH-analogue.

[1] = same patient and regimen, after another three months (five months in total)

## CC(C)C[C@H](NC(=O)[C@@H](Cc1c[nH]c2ccccc12)NC(=O)[C@H](Cc1ccc(O)cc1)NC(=O)[C@H](CO)NC(=O)[C@H](Cc1c[nH]c2ccccc12)NC(=O)[C@H](Cc1c[nH]cn1)NC(=O)[C@@H]1CCC(=O)N1)C(=O)N[C@@H](CCCNC(=N)N)C(=O)N1CCC[C@H]1C(=O)NCC(N)=O [triptorelin]
One patient, very severe schizophrenia, after six months of treatment, previously dopamine receptor antagonists without major improvement
  clinical improvement of schizophrenia: dramatically improved
person, Decapeptyl Depot i.m. every fourth week, dose corresponding to 1.75 mg triptorelin, initially with flutamid, after two months treatment
  patient's condition (schizophrenia symptoms): began to feel better
[1]
  delusions: markedly reduced
  hallucinations: all hallucinations had disappeared
  patient's condition (schizophrenia symptoms): dramatically better
